Measurements: patent US20260345584A1, “METHODS AND PHARMACEUTICAL COMPOSITIONS FOR TREATING CHEMOTHERAPY-INDUCED PERIPHERAL NEUROPATHY WITH EG5 INHIBITORS” (UNIVERSITY OF MIAMI, priority 2023, published 2026)

Experiments:
[1] = system: microtubule detyrosination in keratinocytes; assay: GluTub immunofluorescence of detyrosinated microtubules in zebrafish caudal fin keratinocytes; assay type: in vivo
Procedure: The stock solution was divided into 20-30 μl aliquots and stored at −20 °C until use (maximal 6 months). Immediately prior to use, paclitaxel was diluted in Ringer's solution and added to dechorionated larval zebrafish. The larval fish were placed individually or in small groups into wells of a 12-well plate containing the treatment solutions. The control group was 0.05% DMSO. Plates were incubated at 28.5 °C and protected from light. Treatment lengths are indicated in the Drawings, Description of the Drawings, and Examples where appropriate. […] EMD534085, Eg5 inhibitor (MedChemExpress, Cat. No. HY-15000) was diluted in 100% DMSO to make a 10 mM stock solution and stored at −20 °C. […] The solutions were exchanged every 48 hr.
(§1) Larval fish were transferred into […] glass vials and fixed in 4% paraformaldehyde (PFA)/1× Phosphate-buffered saline (PBS) for 1.5 hr at room temperature, with gentle rocking. Following a 5-minute incubation in 1×PBS+0.1% Tween-20 (PBST), zebrafish were permeabilized in 1×PBS+0.1% Triton X-100 for 10-30 min. Larval fish were transferred into 2 ml reaction tubes and incubated in blocking buffer (1×PBST+5% BSA) for 30 min at room temperature, with rocking. Larval fish were further incubated overnight in antibody solution (Millipore Sigma, Cat. No. AB3201, 1:300 rabbit anti-GluTub; Sigma, Cat No. T6793, 1:500 mouse anti-acetylated tubulin) in blocking buffer at 4 °C, on a rotator. The next morning, larval fish were transferred into 6-well plates and washed 4×15 min in 1×PBST at room temperature, with rocking. This was followed by incubation in secondary antibody (goat anti-rabbit Cy5, Abcam, Cat. No. ab97077; goat anti-mouse Cy3, Abcam, Cat. No. ab97035) and 1:10,000 Hoechst 33342 (ThermoFisher Scientific, Cat. No. 62249, 20 mM solution) in blocking buffer for 1 hr at room temperature, with rocking. Fish were covered to avoid bleaching. […]
Fluorescence intensities were measured using the Imaris MATLAB plugin or Fiji. A line was typically placed over the region of interest and the fluorescence automatically quantified. The values were normalized to nuclear (Hoechst33342) fluorescence intensities within the same fish and region to obtain an intensity ratio.
Stabilized microtubules undergo a modification whereby the terminal tyrosine residue was removed, leading to detyrosination (dMT) (Roll-Mecak et al., 2020, Developmental cell 54: 7-20), which was associated with particularly long-term stabilized microtubule populations (Khawaja et al., 1988, The Journal of cell biology 106: 141-149). Exposure of the penultimate glutamate residue can be detected using a GluTub antibody. […]

[2] = system: microtubule acetylation in keratinocytes; assay: Keratinocyte microtubule acetylation (K40); assay type: in vivo, zebrafish; conditions: 22 μM paclitaxel, 96 hr, with and without EMD534085
Procedure: as §1

Row | Compound | microtubule detyrosination with Eg5 inhibition ([1]; EMD534085-treated animals, 96 hr) | effect on microtubule fasciculation and detyrosination ([1]; EMD534085 co-administered with 100 nM and 22 μM paclitaxel) | keratinocyte microtubule acetylation [2]
1 | CN(C)CCNC(=O)NC[C@H]1CC[C@@H]2[C@H](O1)c1cc(C(F)(F)F)ccc1N[C@H]2c1ccccc1 [EMD534085] | not modified when animals were treated with EMD534085 | rescued microtubule fasciculation but not detyrosination | –
2 | CC(=O)O[C@H]1C(=O)[C@@]2(C)[C@H]([C@H](OC(=O)c3ccccc3)[C@]3(O)C[C@H](OC(=O)[C@H](O)[C@@H](NC(=O)c4ccccc4)c4ccccc4)C(C)=C1C3(C)C)[C@]1(OC(C)=O)CO[C@@H]1C[C@@H]2O [paclitaxel] | – | – | an increase in keratinocyte microtubule acetylation after 96 hr paclitaxel treatment with and without EMD534085
